Experimental data reported in paper PMC12040169 (PLOS Biology, 2025).

Assay: in vitro
Conditions: human, hela cells, % viability

SMILES | viability at 28.5 h, 10 µM [%]
N#Cc1ccc(-n2nc(-c3ccccc3)c3ccccc3c2=O)c([N+](=O)[O-])c1 [CBK132567] | 96.6
O=C(c1ccoc1)N1CCC2(CCCN(Cc3ccc4ccccc4c3)C2)C1 (centres unmarked) [CBK132811] | 90.1
NC(=O)CCN1CCCC2(CCN(C(=O)c3ccoc3)C2)C1 (centres unmarked) [CBK132816] | 96.9
O=C(c1ccoc1)N1CCC2(CCCN(CCCn3c(=O)[nH]c4ccccc43)C2)C1 (centres unmarked) [CBK132818] | 90.1
O=C(c1ccoc1)N1CCC2(CCCN(Cc3cc(=O)[nH]c(=O)[nH]3)C2)C1 (centres unmarked) [CBK132823] | 97.8
CSCCN1CCCC2(CCN(C(=O)c3ccoc3)C2)C1 (centres unmarked) [CBK132835] | 88.7
COc1ccc(C(=O)N2CCC3(CCCN(CCCn4c(=O)[nH]c5ccccc54)C3)C2)cc1OC (centres unmarked) [CBK132856] | 93.1
COc1ccc(C(=O)N2CCC3(CCCN(CCN4C(=O)c5ccccc5C4=O)C3)C2)cc1OC (centres unmarked) [CBK132862] | 98.1
CCc1cc(NC[C@@H](O)CO)nc(-c2cc(F)c(F)c(F)c2)n1 [CBK132879] | 94.2
CCc1cc(NC[C@@H](O)CO)nc(-c2ccc(F)c(Cl)c2)n1 [CBK132880] | 74.4
Cn1c(=O)c2c(ncn2CC(=O)Nc2ccc(Cl)cc2Cl)n(C)c1=O [CBK133227] | 86
CC(C)NC(=O)Cn1cnc2c1c(=O)n(C)c(=O)n2C [CBK133257] | 86.9
Cc1ccc(NC(=O)Cn2cnc3c2c(=O)n(C)c(=O)n3C)c(C)c1 [CBK133276] | 90.6
Cn1c(=O)c2c(ncn2Cc2ccccc2)n(C)c1=O [CBK133402] | 102
Cc1ccc(NC(=O)Cn2cnc3c2c(=O)n(C)c(=O)n3C)nc1 [CBK133463] | 95.9
Cn1c(=O)c2c(ncn2CC(=O)Nc2ccccc2C#N)n(C)c1=O [CBK133465] | 89.6
Cn1c(=O)c2c(ncn2CC(=O)Nc2cccc3ccccc23)n(C)c1=O [CBK133515] | 95.8
COc1ccc(NC(=O)Cn2cnc3c2c(=O)n(C)c(=O)n3C)cc1Cl [CBK134216] | 95.9
Cn1c(=O)c2c(ncn2Cc2ccc(C#N)cc2)n(C)c1=O [CBK134217] | 106
Cc1ccc(Cn2c(OCCN(C)C)nc3c2c(=O)n(C)c(=O)n3C)cc1 [CBK134241] | 89.3
COc1ccc(CCNc2ncnc3[nH]cnc23)cc1OC [CBK134342] | 110

SMILES | viability at 28.5 h, 10 µM [%]
CCc1ccc2[nH]c(=O)c(CN(CCN(C)C)C(=S)NCc3ccccc3)cc2c1 [CBK134905] | 98.4
Cc1cccc(N=C(S)N(CCN(C)C)Cc2cc3cc(C)cc(C)c3nc2O)c1 [CBK135105] | 96.2
CC(C)(N)C(=O)N1CC(C(=O)N2CC3(CCN(S(C)(=O)=O)CC3)c3ccccc32)C(c2cc3ccccc3o2)C1 (centres unmarked) [CBK136734T] | 117
O=C(Cc1ccsc1)N1CCC2(CCN(Cc3ccccc3)CC2)C1 [CBK136742] | 89.8
CSCCC(=O)N1CCC2(CCN(Cc3ccccc3)CC2)C1 [CBK136757] | 101
O=C(c1cncnc1)N1CCC2(CCN(Cc3ccccc3)CC2)C1 [CBK136782] | 101
Cc1cc(CC(=O)N2CCC(Cn3cncn3)(C3CCCCC3)CC2)on1 [CBK136795] | 88.8
O=C(Cc1nnn[nH]1)N1CCC(Cn2cncn2)(C2CCCCC2)CC1 [CBK136796] | 92.2
COc1ccccc1OCC(=O)N1CCC(Cn2cncn2)(C2CCCCC2)CC1 [CBK136797] | 91.9
O=C1NC(=O)C(CC(=O)N2CCC(Cn3cncn3)(C3CCCCC3)CC2)N1 (centres unmarked) [CBK136808] | 94.3
O=C(O)CCC(=O)N1CCC(Cn2cncn2)(C2CCCCC2)CC1 [CBK136809] | 94.8
COC(=O)CCC(=O)N1CCC(Cn2cncn2)(C2CCCCC2)CC1 [CBK136810] | 90.8
O=C(CC1CC1)N1CCC2(CCN(Cc3ccccc3)C2)C1 (centres unmarked) [CBK136825] | 93.9
CSCCC(=O)N1CCC2(CCN(Cc3ccccc3)C2)C1 (centres unmarked) [CBK136838] | 93.8
Cc1cn(CC(=O)N2CCC3(CCN(Cc4ccccc4)C3)C2)c(=O)[nH]c1=O (centres unmarked) [CBK136840] | 91.6
COC(=O)CCC(=O)N1CCC2(CCN(Cc3ccccc3)C2)C1 (centres unmarked) [CBK136852] | 116
O=C(c1ccc2nc[nH]c2c1)N1CCC2(CCN(Cc3ccccc3)C2)C1 (centres unmarked) [CBK136862] | 94.1
O=C(Cc1ccsc1)N1CCCC2(CCN(Cc3ccccc3)C2)C1 (centres unmarked) [CBK136868] | 86.7
O=C(Cc1ccc(Cl)c(Cl)c1)N1CCCC2(CCN(Cc3ccccc3)C2)C1 (centres unmarked) [CBK136872] | 91.9
O=C(c1ccc2occc2c1)N1CCCC2(CCN(Cc3ccccc3)C2)C1 (centres unmarked) [CBK136882] | 105
COc1ccc2[nH]cc(CC(=O)N3CCCC4(CCN(Cc5ccccc5)C4)C3)c2c1 (centres unmarked) [CBK136883] | 93.5

SMILES | viability at 28.5 h, 10 µM [%]
O=C(c1cccc2[nH]ccc12)N1CCCC2(CCN(Cc3ccccc3)C2)C1 (centres unmarked) [CBK136887] | 93.5
N#Cc1cccc(C(=O)N2CCCC3(CCN(Cc4ccccc4)C3)C2)c1 (centres unmarked) [CBK136893] | 92
CN1CCC[C@H]1C(=O)N1CCCC2(CCN(Cc3ccccc3)C2)C1 (some centres unmarked) [CBK136901] | 90.7
CCOC(=O)C1(C2CCCCC2)CCN(C(=O)CC2CCCCC2)CC1 [CBK136919] | 96.2
CCOC(=O)C1(C2CCCCC2)CCN(C(=O)c2ccc(OC(F)(F)F)cc2)CC1 [CBK136921] | 96.2
CCOC(=O)C1(C2CCCCC2)CCN(C(=O)/C=C/c2ccc3c(c2)OCO3)CC1 [CBK136924] | 92.8
CCOC(=O)C1(C2CCCCC2)CCN(C(=O)COc2ccccc2OC)CC1 [CBK136928] | 96.7
CCOC(=O)C1(C2CCCCC2)CCN(C(=O)CC2NC(=O)NC2=O)CC1 (centres unmarked) [CBK136938] | 100
CCOC(=O)C1(C2CCCCC2)CCN(C(=O)CCC(=O)O)CC1 [CBK136939] | 95.9
CS(=O)(=O)N1CC2(CCN(Cc3cccc4cccnc34)CC2)c2ccccc21 [CBK136955] | 93.2
CS(=O)(=O)N1CC2(CCN(Cc3ccc4nsnc4c3)CC2)c2ccccc21 [CBK136957] | 92.9
CCNC(=O)N1CC2(CCN(CCc3cccc4ccccc34)CC2)c2ccccc21 [CBK136965] | 94.7
CCNC(=O)N1CC2(CCN(CCCC#N)CC2)c2ccccc21 [CBK136970] | 111
CCNC(=O)N1CC2(CCN(CCOCC)CC2)c2ccccc21 [CBK136972] | 90.5
CC(C)C(=O)N1CC2(CCN(CCc3cccc4ccccc34)CC2)c2ccccc21 [CBK136978] | 101
CCN1CC2(CCN(Cc3c(F)cccc3F)CC2)c2ccccc21 [CBK136986] | 94
CCN1CC2(CCN(CC3CC3)CC2)c2ccccc21 [CBK136987] | 92.6
CCN1CC2(CCN(CCCN(C)C)CC2)c2ccccc21 [CBK136988] | 84.5
CCN1CC2(CCN(CCCC#N)CC2)c2ccccc21 [CBK136995] | 91.1
NC(=O)CN1CC2(CCN(Cc3cccc4cccnc34)CC2)c2ccccc21 [CBK137021] | 123
